Results published in US6140311A, “Therapy by intrathecal administration of antitumor agent FUDR” (priority 1997, dated 2000).

Legend:
203 glioma cells = assay: In vivo antitumor effect of intrathecal FUDR in mouse meningeal carcinomatosis model; set-up: species or system C57/BL6 mice; details: daily for 5 consecutive days, control group all dead
Description: Six-week-old C57/BL6 mice divided into groups of 22 or 23 were used to prepare models of meningeal carcinomatosis by directly puncturing the cisterna magna with a 26-gauge needle under anesthesia with ethyl ether and injecting transplantable 203 glioma cells (5×10^5 cells/0.05 ml). The mice were given a specified dose of FUDR by intrathecal injection (0, 25, 50, 100 or 250 μg/0.05 ml/head) daily for 5 consecutive days following the day of transplant.

[1] = system: meningeal dissemination of malignant tumours; assay: Clinical results of intrathecal chemotherapy with FUDR via Ommaya reservoir;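 further: 13 patients with meningeal spread from various primary tumours, treatment length adjusted to disease symptoms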
Description: The drug was given at a dose of 1 to 10 μg/body a day, three times a week. The period of administration was varied from 3 to 8 weeks in accordance with the symptoms of the disease.

[2] = Toxicity of intrathecal FUDR in normal mice (body weight, symptoms, brain histology); type: in vivo, C57/BL6 mice; details: for body weight variation: days 0, 2, 4, 6
Description: Normal C57/BL6 mice divided into groups of 20 were given FUDR by intrathecal injection at a specified dose (0, 10, 25, 50 or 100 μg/0.05ml/head) on the day of start of the experiment, 2 days, 4 days and 6 days after the start. Two months after the completion of administration of the drug, the mice were all sacrificed, and brain tissues were collected, followed by hematoxylin & eosin staining and Kluver Barrera staining for histological investigation.

meningeal carcinomatosis = details: intrathecal MTX; cited from earlier work
[3] = 1 to 10 μg/body a day intrathecal, three times a week, 3 to 8 weeks
[4] = per patient, before→after, CSF obtained by anterial horn of lateral ventricle
[5] = per patient, 1 to 10 μg/body a day intrathecal, three times a week, 3 to 8 weeks
[6] = high-dose group 100 μg/0.05 ml intrathecal

SMILES | survivors on day 14 postimplantation (203 glioma cells; 100 μg/0.05 ml/head intrathecal) | survivors on day 14 postimplantation (203 glioma cells; 250 μg/0.05 ml/head intrathecal) | efficacy, summary of 13 patients [1, 3] | side effects, summary of 13 patients [1, 3] | Cell numbers Ventricular CSF [1, 4] [fwdarw] | Protein Ventricular CSF [1, 4] [fwdar] | Cell numbers Spinal CSF ([1]; per patient, before→after, CSF obtained by lumbar puncture) [fwdar] | Response on CSF findings [1, 5] | Side effects [1, 5] | neurotic manifestation during and after administration ([2]; all dose groups 10-100 μg/0.05 ml intrathecal) | histological changes in cranial nerve tissues (hematoxylin & eosin, Kluver Barrera staining) ([2]; high-dose (100 μg/0.05 ml) group, two months after completion of administration) | side effects such as diarrhea [2, 6] | body weight variation [2, 6] | body weight variation ([2]; medium-dose group 50 μg/0.05 ml intrathecal) | body weight variation ([2]; small-dose group 10 μg/0.05 ml intrathecal) | body weight variation ([2]; small-dose group 25 μg/0.05 ml intrathecal) | side effects limiting the dose (meningeal carcinomatosis)
O=c1[nH]c(=O)n([C@H]2C[C@H](O)[C@@H](CO)O2)cc1F [FUDR, 5-fluoro-deoxyuridine] | 21 survivors among 22 animals | 21 survivors among 22 animals | diminutions of tumor marker, CSF cells and protein in CSF | none of side effects such as toxicity to the digestive tracts, neurotoxicity, myelosuppression, and dysfunction of the liver and kidney | 50. | 147. | 144. | No and Response and No Response | None | none of the mice developed neurotic manifestation | none of the mice exhibited abnormalities in the cranial nerve tissues | free of side effects such as frequent diarrhea | transient weight decrease | no weight decrease whatever | no weight decrease whatever | no weight decrease whatever | 
CN(Cc1cnc2nc(N)nc(N)c2n1)c1ccc(C(=O)N[C@@H](CCC(=O)O)C(=O)O)cc1 [MTX, methotrexate] |  |  |  |  |  |  |  |  |  |  |  |  |  |  |  |  | Acute neurotoxicity and retarded necrotizing encephalopathy
